This is an account of results in PubChem BioAssay (NCI).

Values joined by “and” are separate entries in the source; they are usually repeats but may differ in a detail not shown here. Equal entries are not always repeated.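 96-well plates; 48 h exposure; 5 concentrations. Endpoints by linear interpolation between flanking doses. Not reached: highest tested concentration assigned. Abbreviation: GI50, concentration required for 50% inhibition of growth. Definition used: TGI = concentration required for complete inhibition of growth.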

Holding throughout (assay): NCI-60 cell line screen, 48 h
In experiment [1] the test system is A549 NSCLC.
Experiment [2] concerns COLO 205 colon.
Experiment [3] deals with EKVX NSCLC.
Experiment [4] deals with HS 578T breast.
In experiment [5] the test system is MDA-MB-231 breast.
Experiment [6] deals with MDA-MB-435.
For experiment [7], the system named is NCI-H226 lung.
In experiment [8] the test system is OVCAR-3 ovarian.
Experiment [9] deals with SF-268 CNS.
For experiment [10], the system named is SK-MEL-28 melanoma.

With `COc1ccc(NC(=O)c2ccc(NC3=C(Cl)C(=O)N(Cc4ccccc4)C3=O)cc2)c(OC)c1`, the GI50 in experiment [1] is 45.4 µM; in experiment [2], 44.4 µM; in [3] it was 64.9 µM; in [4] it was greater than 100 µM; in [5], greater than 100 µM; in experiment [6] it was 16.7 µM. Besides, the GI50 in [7] is 43.9 µM; in experiment [8], 15.1 µM; in [9], 29.1 µM; in experiment [10] it was 83.3 µM. For the same molecule, the TGI in experiment [1] was greater than 100 µM; in experiment [2], greater than 100 µM; in [3], greater than 100 µM; in experiment [4], greater than 100 µM; in experiment [5], greater than 100 µM; in experiment [6], 48.9 µM. Moreover, the TGI was greater than 100 µM in experiment [7], 33.2 µM in experiment [8], greater than 100 µM in experiment [9] and greater than 100 µM in experiment [10].

For the molecule `CC/C=C\C[C@H](O)C/C=C1/C(=O)C=C[C@@H]1C/C=C\CCCCO`, the GI50 was 3.35 µM in [1]; 2.45 µM in experiment [2]; 4.22 µM in experiment [3]; 9.24 µM in experiment [4]; 3.92 µM in experiment [5]; 3.48 µM in experiment [6]. For the same molecule, the GI50 is 2.24 µM in experiment [7], 3.72 µM in experiment [8], 4.53 µM in [9] and 2.39 µM in experiment [10]. In addition, the TGI in experiment [1] is 11.5 µM; in [2] it was 5.99 µM; in [3], 18 µM; in [4] it was greater than 100 µM; in [5] it was 14.9 µM; in [6], 15.8 µM. In addition, the TGI in experiment [7] is 4.76 µM; in [8], 12.9 µM; in experiment [9], 23.9 µM; in [10], 6.87 µM.

`O=C1c2cc(F)ccc2-c2c1c1ccc([N+](=O)[O-])cc1c(=O)n2CCCBr`: the GI50 in [1] is 25.7 µM; in experiment [2], 46.8 µM; in experiment [3] it was greater than 100 µM; in experiment [4] it was greater than 100 µM; in [5], greater than 100 µM; in experiment [6] it was 37.5 µM. Further, the GI50 in experiment [7] was 22.6 µM; in experiment [8] it was 46.8 µM; in experiment [9] it was 8.56 µM; in experiment [10], 69.6 µM. For the same molecule, the TGI in experiment [1], in experiment [2], in [3], in [4], in experiment [5] and in [6] was greater than 100 µM in each case. Also, the TGI in experiment [7], in experiment [8], in [9] and in experiment [10] was greater than 100 µM each time.

Regarding `COc1ccc(Cn2cc3c(c2-c2cc(OC)c(OC)c(OC)c2)CCc2c(CO)noc2-3)cc1`, the GI50 is 0.439 µM in experiment [1]; 0.339 µM in experiment [2]; 0.644 µM in experiment [3]; 0.371 µM in [4]; 0.629 µM in experiment [5]; 0.0605 µM in experiment [6]. Also, the GI50 in [7] was 2.94 µM; in [8], 0.312 µM; in experiment [9], 1.58 µM; in experiment [10] it was 4.35 µM. In addition, the TGI is greater than 100 µM in [1]; 4.28 µM in [2]; greater than 76.9 µM in [3]; 35.8 µM in experiment [4]; 19 µM in experiment [5]; 0.245 µM in experiment [6]. Moreover, the TGI in [7] was 38.2 µM; in experiment [8], 12.9 µM; in experiment [9], 26.5 µM; in experiment [10], 24.5 µM.

With `COC(=O)c1oc2c(C(=O)/C=C/c3ccc(OC)cc3)c(OCCN3CCOCC3)ccc2c1C`, the GI50 was 2.22 µM in experiment [1]; 1.58 µM in experiment [2]; 1.87 µM in experiment [3]; 1.74 µM in experiment [4]; 1.64 µM in experiment [5]; 2.37 µM in [6]. The GI50 is 1.59 µM in experiment [7], 1.89 µM in experiment [8], 2.05 µM in experiment [9] and 2.33 µM in experiment [10]. Besides, the TGI in experiment [1] was determined as 6.07 µM; in [2] it was 3.12 µM; in experiment [3] it was 7.49 µM; in experiment [4] it was 5.84 µM; in [5] it was 5.18 µM; in experiment [6], 7.34 µM. For the same molecule, the TGI in experiment [7] is 3.51 µM; in [8] it was 5.69 µM; in experiment [9] it was 5.76 µM; in experiment [10] it was 5.19 µM.

Regarding `CC(C)C(=O)c1c(C(F)(F)F)n([O-])c2ccccc2[n+]1=O`, the GI50 is 2.46 µM in experiment [1]; 1.31 µM in [2]; 0.876 µM in [3]; 5.4 µM in [4]; 1.58 µM in [5]; 1.07 µM in experiment [6]. In addition, the GI50 is 1.86 µM in experiment [7], 0.493 µM in [8], 1.03 µM in [9] and 9.06 µM in experiment [10]. The TGI in experiment [1] was 6.79 µM; in [2], 2.97 µM; in experiment [3], 2.57 µM; in experiment [4] it was 18.1 µM; in experiment [5] it was 3.58 µM; in experiment [6] it was 3.45 µM. Moreover, the TGI came out at 5.27 µM in experiment [7], 1.24 µM in [8], 4.66 µM in experiment [9] and 25.1 µM in [10].

Take `O=C1CC(CC(OCc2ccccc2)C(OCc2ccccc2)C(COCc2ccccc2)OCc2ccccc2)CC(=O)N1` (stereo not drawn): the TGI in [1] is greater than 100 µM; in [3], greater than 100 µM; in experiment [4], > 100 µM and 33.9 µM; in experiment [5], 23.7 µM; in experiment [6], > 100 µM and 21.7 µM; in [7], > 100 µM and 62.4 µM. Moreover, the TGI in [8] is > 100 µM and 44 µM; in experiment [9], > 100 µM and 65.3 µM; in experiment [10] it was greater than 100 µM. The GI50 is > 100 µM and 12.5 µM in [3]; > 100 µM and 16.5 µM in experiment [4]; > 100 µM and 17.7 µM in [7]; > 100 µM and 12.2 µM in experiment [8]; > 100 µM and 11.2 µM in experiment [9]; > 100 µM and 21.4 µM in [10].

For the molecule `CN(C)c1ccccc1[CH2][Ga]([Cl])[CH2]c1ccccc1N(C)C`, the GI50 in experiment [1] was 1.44 µM; in [2], 1.04 µM; in experiment [3], 0.794 µM; in experiment [4], 1.28 µM; in [5], 1.31 µM; in [6], 1.61 µM. The GI50 in experiment [7] was 0.537 µM; in experiment [8], 1.4 µM; in experiment [9], 1.77 µM. In addition, the TGI in experiment [1] is 2.94 µM; in [2] it was 2.36 µM; in [3] it was 2.24 µM; in experiment [4], 5.79 µM; in experiment [5] it was 2.71 µM; in experiment [6] it was 3.12 µM. Further, the TGI in experiment [7] turned out to be 1.95 µM; in experiment [8], 3.65 µM; in [9], 3.3 µM.
